Measurements as given in patent publication US6465428B1, “Pharmaceutical combinations based on dalfopristine and quinupristine, and on cefepime” (Aventis Pharma S.A., priority 1999, dated 2002).
Values after ≈ are worked out from the molar mass of the structure shown.

Key:
[1] = test system: MRSA clinical isolates (Staphylococcus aureus resistant to methicillin); experiment: MIC by broth macrodilution; assay type: cell-based; conditions: for Range of MICs: 5 clinical isolates, 24 h at 35° C.
Method: A panel of 10 clinical isolates of MRSA (5 MLSB-susceptible (susceptible to Macrolide-Lincosamide-Streptogramin B) and 5 C-MLSB-resistant (Constitutively Resistant to Macrolide-Lincosamide-Streptogramin B)) originating from various geographical areas were tested for their susceptibilities to quinupristin/dalfopristin and to cefepime. Two of these isolates, namely AW7 and P8, were further used for animal experiments. These both were C-MLSB-resistant.
Bacteria were grown at 35° C., either in liquid cultures in tryptic soy broth (TSB; Difco Laboratories, Detroit, Mich.) or cation supplemented Mueller Hinton Broth (MHB; Difco), or on tryptic soy agar (TSA; Difco). All growth media were supplemented with 2% of sodium chloride to increase the expression of β-lactam resistance by MRSA. Bacterial stocks were kept at −70° C. in TSB, supplemented with 10% (vol/vol) glycerol.
The MIC (minimum inhibitory concentration) of the tested antibiotics was determined by a known broth macrodilution method (D. Amsterdam, Susceptibility testing of antimicrobials in liquid media, p.52-111, In V. Lorian ed., Antibiotics in Laboratory Medicine, Williams and Wilkins, Baltimore (1996)) with final inoculum of 10^5 to 10^6 CFU/ml. The MIC was defined as the lowest antibiotic concentration that inhibited visible bacterial growth after 24 hours of incubation at 35° C.

[2] = test system: C-MLSB resistant MRSA AW7 and P8; experiment: Experimental endocarditis in rats; assay type: in vivo, rat; conditions: i.v. pump simulating human kinetics, every 12 hours
Text: Sterile aortic vegetations were produced in female Wistar rats (weight 180 to 200 g) by the method of Heraiefet al., Infect Immunol., 37, 127-31 (1982), the disclosure of which is incorporated herein by reference in its entirety. Close by, an intravenous line containing a Silastic catheter was inserted into the jugular vein of a rat. The distal portion of the catheter was connected to a programmable pump device through a swivel, thus allowing the animals to move around their cage. The pump was set to deliver a volume of 0.2 ml of saline per hour to keep the line open until the onset of the therapy. In some experiments, quinupristine/dalfopristine was injected in combination with cefepime to the animals, with 2 infusion pumps, one to simulate human kinetics of quinupristine/dalfopristine and one to simulate human kinetics of cefepime. The 2 pumps were connected to a 2 way swivel and the drugs were infused into the animals via 2 independent jugular lines. No i.v. lines were placed in the control animals. Bacterial endocarditis was induced 24 hours after catheterization of the animals with 0.5 ml of saline containing 10^5 CFU of either of the test organisms. This inoculum was 10 times larger than the minimum inoculum producing endocarditis in 90% of the untreated rats.
Treatment was started 12 hours after bacterial challenge and lasted 3 or 5 days. The distribution of the antibiotics simulated the drug kinetics in the serum of humans. Quinupristine/dalfopristine was given to simulate treatment in humans with 7 mg/kg of the drug administered i.v. every 12 hours. Cefepime was given to simulate treatment in humans with 2 g of the drug given i.v. every 12 hours. This required, for the experiment, a total amount (mg/kg of body weight) per 12 hours of 38 mg/kg of quinupristine/dalfopristine and 142 mg/kg of cefepime.
The control rats were sacrificed at the onset of the treatment (i.e., 12 hours after inoculation) in order to measure both the frequency and the severity of valvular infection at the start of the therapy. Treated rats were sacrificed 12 hours after the low level of the last antibiotic dose of either test drug. At that time, no residual antibiotic could be detected in the blood. The valvular vegetation were dissected under sterile conditions, weighed, homogenized in 1 ml of saline, and serially diluted before being plated for colony counts. The number of colonies growing on the plates was determined after 48 hours of incubation at 35° C. Bacterial densities in the vegetations were expressed as log10 CFU/g of tissue. The minimum detection level was ≧2 log10 CFU/g of vegetation. For statistical comparisons of differences between the vegetation bacterial densities of various treatment groups, culture-negative vegetations were considered to contain 2 log10 CFU/g. […]

Structure (SMILES): CO/N=C(\C(=O)N[C@@H]1C(=O)N2C(C(=O)[O-])=C(C[N+]3(C)CCCC3)CS[C@H]12)c1csc(N)n1 [cefepime, (6R,7R)-7-(2-(2-aminothiazol-4-yl)-2(Z)-(methoxyimino)acetamido)-3-(1-methyl-pyrrolidiniomethyl)-3-cephem-4-carboxylate]
- Range of MICs ([1]; MRSA C-MLSB-R): >64 mg/L
- Range of MICs ([1]; MRSA MLSB-S): >64 mg/L
- MIC ([1]; Staphylococcus aureus, C-MLSB resistant MRSA AW7 and P8): 64 µg/mL (≈ 133 µM)
- infected rats/total rats ([2]; Strain AW-7): 6/6
- median log10 CFU/g of vegetation ([2]; Strain AW-7): (8.6) log10 CFU/g
- infected rats/total rats ([2]; Strain P8): 8/8
- median log10 CFU/g of vegetation ([2]; Strain P8): (9.0) log10 CFU/g
